Conditions: mouse, in vivo
Procedure: A 4-h pilot experiment was performed in female wild-type (WT) and double-knockout Abcb1a/1b;Abcg2^-/- mice, with oral administration of 20 mg/kg EAI045. As shown in Supplemental Figure S2A,B, EAI045 was very rapidly absorbed in all strains, with an apparent tmax around 5 min.
We further measured the brain, liver, kidney, spleen, lung, and small intestine with content (SIWC) concentrations of EAI045 4 h after oral administration. Whereas at t = 4 h the plasma concentrations between the two strains were similar, the brain concentrations and brain-to-plasma ratios in Abcb1a/1b;Abcg2^-/- mice were dramatically higher than those in WT mice (25-fold and 12-fold, respectively, Supplemental Figure S3A,B). […] In contrast, the small intestine with content (SIWC) percentage of dose (SIWC%) and SIWC%-to-plasma ratio was reduced in Abcb1a/1b;Abcg2^-/- mice (Supplemental Figure S3K,L).
Mice (Mus musculus) were bred in the Netherlands Cancer Institute and housed and handled according to institutional guidelines complying with Dutch and EU legislation. Animals used were WT, Abcb1a/1b^-/- [39], Abcg2^-/- [40], Abcb1a/1b;Abcg2^-/- [41], Cyp3a^-/- [42], and Oatp1a/1b^-/- [43] mice of a >99% FVB/N strain background. Homozygous CYP3A4 humanized transgenic mice (Cyp3aXAV) were generated by cross-breeding of transgenic mice with stable human CYP3A4 expression in the liver or intestine, respectively, in a Cyp3a^-/- background. Proper functionality of the knockout and transgenic strains was monitored by regular testing with a variety of drug substrates. All the mice used were between 10 and 15 weeks of age. Animals were kept in a temperature-controlled environment with a 12 h light/12 h dark cycle and received a standard diet (Transbreed, SDS Diets, Technilab-BMI, The Netherlands) and acidified water ad libitum. Depending on the type of experiment, 5 or 6 mice were tested in each experimental group. All experimental animal protocols, including power calculations, were ethically assessed and designed under the nationally approved DEC/CCD project AVD301002016595 (approval date, 10 August 2016) and evaluated and approved by the institutional animal care and use committee (IACUC) of the Netherlands Cancer Institute.
EAI045 was dissolved in dimethyl sulfoxide (DMSO) at a concentration of 4 mg/mL, and then diluted with a mixture of polysorbate 80/ethanol (1:1, v/v), and further diluted with 5% (w/v) glucose in water to yield a concentration of 2 mg/mL. Final concentrations for DMSO, polysorbate 80, ethanol, and glucose in the dosing solution were 5%, 2.5%, 2.5%, and 4.5% (v/v/v/w), respectively. […]

O=C(Nc1nccs1)C(c1cc(F)ccc1O)N1Cc2ccccc2C1=O (stereo not shown) [EAI045]
percentage of dose left in intestinal lumen (SIWC%): 1.7% | apparent tmax (po, 20 mg/kg): around 5 min | plasma exposure over 4 h (AUC0–4h) (po, 20 mg/kg): not meaningfully altered | brain-to-plasma ratio (po, 20 mg/kg, 4 h): 0.15

Source: paper PMC9505538, “P-Glycoprotein (MDR1/ABCB1) Restricts Brain Accumulation of the Novel EGFR Inhibitor EAI045 and Oral Elacridar Coadministration Enhances Its Brain Accumulation and Oral Exposure” (Pharmaceuticals, 2022)
